Our source for the IC50 values is patent US9604998B2, “Inhibitors of the renal outer medullary potassium channel” (MERCK SHARP & DOHME CORP., priority 2013, dated 2017).

As a reminder, the IC50 is the concentration at which inhibition is half-maximal.

Where a name gives a salt, the structure may show the parent alone. Read-outs that look alike come from different tables or passages of the source.

The target in one experiment is hROMK (hKir1.1) (Homo sapiens (Human), UniProt P48048). As to the kind of experiment: Thallium Flux Assay (ROMK channel functional thallium flux, FLIPR-Tetra). It is filed as cell-based. The protocol:
HEK293 cells stably expressing hROMK (hKir1.1) were grown at 37° C. in a 10% CO2 humidified incubator in complete growth media: Dulbecco's Modified Eagle Medium supplemented with non-essential amino acids, Penicillin/Streptomycin/Glutamine, G418 and FBS. At >80% confluency, aspirate the media from the flask and rinse with 10 mL Calcium/Magnesium-free PBS. […] To dislodge the cell, gently bang the side of the flask with your hand. Triturate the cells completely and then transfer the cells to 25 mL complete media. Centrifuge at 1,500 rpm for 6 min followed by resuspension in complete growth media and determine cell concentration.
Compound Buffer (per microplate): 20 mL Probenecid/Assay Buffer; 0.3 mM ouabain (10 mM ouabain in water can be stored in amber bottle/aluminum foil at room temperature); Test compound
Stimulant Buffer (prepared at 5× final concentration in 1× FluxOR™ Chloride-Free Buffer): 7.5 mM Thallium sulfate and […] (to give a final assay concentration of 3 mM Thallium/0.3 mM Potassium). Store at 4° C. when not in use. If kept sterile, this solution is good for months.
The ROMK channel functional thallium flux assay is performed in 384 wells, using the FLIPR-Tetra instrument. HEK-hKir1.1 cells are seeded in Poly-D-Lysine microplates and kept in a 37° C.-10% CO2 incubator overnight. On the day of the experiment, the growth media is replaced with the FluxOR™ reagent loading buffer and incubated, protected from light, at ambient temperature (23-25° C.) for 90 min. The loading buffer is replaced with assay buffer±test compound followed by 30 min incubation at ambient temperature, where the Thallium/Potassium stimulant is added to the microplate.
1. Seed HEK-hKir1.1 cells (50 μl at 20,000 cells/well) in 384-well PDL coated Microplates
2. Allow cells to adhere overnight in humidified 37° C./10% CO2 incubator
3. Completely remove cell growth media from microplate and replace with 25 μl loading buffer
4. Incubate Microplate at room temperature, protected form light, for 90 min
5. Remove loading buffer and replace with 25 μl 1× Assay Buffer±test compound.
6. Incubate microplate at room temperature, protected from light, for 30 min
7. […] Excitation=400 nm, Emission=460 & 580 nm. Collect data for ˜10 min.
The fluorescence intensity of wells containing 3 μM of a standard control ROMK inhibitor of the present invention is used to define the ROMK-sensitive component of thallium flux. Fluorescence in the presence of test compounds is normalized to control values to provide % fluorescence change.

In a further experiment the target is Kir1.1 (ROMK1) (Homo sapiens (Human), UniProt P48048). As to the kind of experiment: Electrophysiology Assay (whole cell voltage clamp, IonWorks Quattro). It is filed as cell-based. To be noted: block during voltage step to 0 mV. The protocol: Chinese hamster ovary cells stably expressing Kir1.1 channels were maintained in T-75 flasks in cell culture media in a humidified 10% CO2 incubator at 37° C. Prior to an experiment, Kir1.1 expression was induced by overnight incubation with 1 mM sodium butyrate. […] After centrifugation, the cell pellet was resuspended in approximately 4.0 mL of bath solution and placed in the IonWorks instrument. The intracellular solution consisted of (in mM): 80 K gluconate, 40 KCl, 20 KF, 3.2 MgCl2, 3 EGTA, 5 Hepes, pH 7.4. Electrical access to the cytoplasm was achieved by perforation in 0.13 mg/mL amphotericin B for 4 min. […] Voltage protocols and current recordings were performed using the IonWorks HT software/hardware system. Currents were sampled at 1 kHz. No correction for liquid junction potentials was used. The test pulse, consisting of a 100 ms step to 0 mV from a holding potential of −70 mV, followed by a 100 ms voltage ramp from −70 mV to +70 mV, was applied before and after a 6 min compound incubation period. Test compounds were prepared by diluting DMSO stock solutions into the bath solution at 3× the final concentration and placed in the instrument in 96-well polypropylene plates. Current amplitudes were measured using the IonWorks software.
Kir1.1 (ROMK1), sequence (P48048 whole entry, species assumed): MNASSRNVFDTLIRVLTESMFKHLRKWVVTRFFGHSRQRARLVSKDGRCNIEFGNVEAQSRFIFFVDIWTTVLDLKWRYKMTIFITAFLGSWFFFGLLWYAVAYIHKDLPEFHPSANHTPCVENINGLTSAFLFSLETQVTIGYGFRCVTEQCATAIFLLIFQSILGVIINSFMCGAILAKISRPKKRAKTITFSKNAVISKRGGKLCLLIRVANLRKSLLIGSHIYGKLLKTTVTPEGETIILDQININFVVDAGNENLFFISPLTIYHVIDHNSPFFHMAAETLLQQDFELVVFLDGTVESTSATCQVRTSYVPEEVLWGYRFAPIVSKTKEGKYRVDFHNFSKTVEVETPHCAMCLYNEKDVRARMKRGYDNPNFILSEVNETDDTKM
In general terms: The patch-clamp technique gives a direct electrical read-out from membranes.

Setting [1] is: HEK293 cells stably expressing hROMK (hKir1.1), read-out: Thallium Flux IC50.
The mark [2] stands for this setting: Chinese hamster ovary cells stably expressing Kir1.1, read-out: Electrophysiology IC50.

hROMK (hKir1.1), sequence (P48048 whole entry): as the sequence (P48048 whole entry, species assumed) above

Take `COc1cc(CCN2CCN3C[C@H](c4ccc5c(c4C)COC5=O)OC[C@H]3C2)c(F)cc1C#N` [Example 97]: the IC50 was 350 nM on hROMK (hKir1.1) (setting [1]) and 280 nM at Kir1.1 (ROMK1) (setting [2]).

For `Cc1c([C@@H]2CN3CCN(CC(O)c4ccc5c(c4C4CC4)COC5=O)C[C@H]3CO2)ccc2c1COC2=O` (single isomer, unassigned) [Example 50], the IC50 stood at 440 nM on hROMK (hKir1.1) (setting [1]) and 250 nM on Kir1.1 (ROMK1) (setting [2]).

On to `Cc1c([C@@H]2CN3CCN(CC(O)c4cc(F)c(C#N)c(F)c4)C[C@H]3CO2)ccc2c1COC2=O` (single isomer, unassigned) [Example 49], for which the IC50 at hROMK (hKir1.1) (setting [1]) was 250 nM; on Kir1.1 (ROMK1) (setting [2]), 50 nM.

Take `Cc1c([C@@H](O)CN2CCN3C[C@@H](c4ccc5c(c4)COC5=O)OC[C@@H]3C2)ccc2c1COC2=O` [Example 11, (3R,9aS)-8-[(2R)-2-hydroxy-2-(4-methyl-1-oxo-1,3-dihydro-2-benzofuran-5-yl)ethyl]-3-(1-oxo-1,3-dihydro-2-benzofuran-5-yl)octahydropyrazino[2,1-c][1,4]oxazin-5-ium trifluoroacetatep]: the figures for the IC50 on hROMK (hKir1.1) (setting [1]) and on Kir1.1 (ROMK1) (setting [2]) were 360 nM and 60 nM, respectively.

For the molecule `Cc1c([C@H]2CN3CCN(CC(O)c4ccc(-n5cnnn5)nc4)C[C@H]3CO2)ccc(F)c1C#N` (single isomer, unassigned) [Example 18], the figures for the half-inhibitory concentration (IC50) on hROMK (hKir1.1) (setting [1]) and on Kir1.1 (ROMK1) (setting [2]) were 290 nM and 100 nM, respectively.

For `Cc1c([C@@H]2CN3CCN(C[C@H](O)c4ccc5c(c4)COC5=O)C[C@@H]3CN2)ccc(F)c1C#N` [Example 107], the half-inhibitory concentration (IC50) at hROMK (hKir1.1) (setting [1]) turned out to be 160 nM; on Kir1.1 (ROMK1) (setting [2]), 200 nM.

As to `Cc1c(C(O)CN2CCN3C[C@@H](c4ccc5c(c4C)COC5=O)OC[C@@H]3C2)ccc(F)c1C#N` (stereo partly drawn) [Example 13, (3R,9aS)-8-[2-(3-cyano-4-fluoro-2-methylphenyl)-2-hydroxyethyl]-3-(4-methyl-1-oxo-1,3-dihydro-2-benzofuran-5-yl)octahydropyrazino[2,1-c][1,4]oxazin-5-ium trifluoroacetate], the values for the 50% inhibitory concentration (IC50) at hROMK (hKir1.1) (setting [1]) and on Kir1.1 (ROMK1) (setting [2]) were 270 nM and 220 nM, respectively.

Turning to `COc1cc([C@@H]2CN3CCN(CCc4ccc5c(c4C)COC5=O)C[C@H]3CO2)ccc1C#N` [Example 71], the IC50 on hROMK (hKir1.1) (setting [1]) is 110 nM; at Kir1.1 (ROMK1) (setting [2]), 200 nM.

In the case of `COc1cc([C@H]2CN3CCN(CC(O)c4cc(OC)c(C#N)cc4F)C[C@@H]3CO2)ccc1C#N` (stereo partly drawn) [Example 14, (3S,9aR)-8-[2-(4-cyano-2-fluoro-5-methoxyphenyl)-2-hydroxyethyl]-3-(4-cyano-3-methoxyphenyl)octahydropyrazino[2,1-c][1,4]oxazin-5-ium chloride], the IC50 on hROMK (hKir1.1) (setting [1]) amounted to 580 nM; on Kir1.1 (ROMK1) (setting [2]) it was 270 nM.

`Cc1cc2c(cc1C(O)CN1CCN3C[C@@H](c4ccc5c(c4C)COC5=O)OC[C@@H]3C1)COC2=O` (single isomer, unassigned) [Example 43]: the IC50 on hROMK (hKir1.1) (setting [1]) stood at 210 nM; on Kir1.1 (ROMK1) (setting [2]) it was 130 nM.

For the molecule `Cc1c([C@H]2CN3CCN(CCc4ccc5c(c4)COC5=O)C[C@@H]3CN2)ccc(F)c1C#N` [Example 106], the IC50 on hROMK (hKir1.1) (setting [1]) was 130 nM; on Kir1.1 (ROMK1) (setting [2]) it was 50 nM.

Consider `COc1cc(C(O)CN2CCN3C[C@@H](c4ccc5c(c4)COC5=O)OC[C@@H]3C2)c(Cl)cc1C#N` (stereo partly drawn) [Example 10, (3R,9aS)-8-[2-(2-chloro-4-cyano-5-methoxyphenyl)-2-hydroxyethyl]-3-(1-oxo-1,3-dihydro-2-benzofuran-5-yl)octahydropyrazino[2,1-c][1,4]oxazin-5-ium trifluoroacetate], for which the concentration for half-maximal inhibition (IC50) on hROMK (hKir1.1) (setting [1]) worked out at 550 nM; at Kir1.1 (ROMK1) (setting [2]) it was 130 nM.

Turning to `COc1cc([C@H]2CN3CCN(C[C@H](O)c4ccc5c(c4C)COC5=O)C[C@@H]3CO2)cc(F)c1C#N` [Example 53, (3S,9aR)-3-(4-cyano-3-fluoro-5-methoxyphenyl)-8-[(2R)-2-hydroxy-2-(4-methyl-1-oxo-1,3-dihydro-2-benzofuran-5-yl)ethyl]octahydropyrazino[2,1-c][1,4]oxazin-8-ium chloride], the half-maximal inhibitory concentration (IC50) at hROMK (hKir1.1) (setting [1]) is 240 nM; on Kir1.1 (ROMK1) (setting [2]), 80 nM.

With `Cc1c([C@H]2CN3CCN(CCc4ccc5c(c4)COC5=O)C[C@H]3CO2)ccc2c1COC2=O` [Example 65], the IC50 is 170 nM at hROMK (hKir1.1) (setting [1]) and 110 nM on Kir1.1 (ROMK1) (setting [2]).

For the molecule `COc1c(C#N)ccc(CCN2CCN3C[C@@H](c4ccc5c(c4C)COC5=O)OC[C@@H]3C2)c1C` [Example 82], the IC50 at hROMK (hKir1.1) (setting [1]) is 60 nM; on Kir1.1 (ROMK1) (setting [2]) it was 80 nM.

Regarding `Cc1cc2c(cc1C(O)CN1CCN3C[C@H](c4ccc(F)c(C#N)c4C)OC[C@@H]3C1)COC2=O` (single isomer, unassigned) [Example 27, trifluoroacetate], the IC50 against hROMK (hKir1.1) (Thallium Flux IC50, HEK293 cells stably expressing hROMK (hKir1.1)) turned out to be 310 nM; on Kir1.1 (ROMK1) (Electrophysiology IC50, Chinese hamster ovary cells stably expressing Kir1.1), 240 nM.

As to `COc1c([C@@H]2CN3CCN(C[C@H](O)c4ccc5c(c4C)COC5=O)C[C@@H]3CO2)ccc(C#N)c1F` [Example 32, (3R,9aR)-3-(4-cyano-3-fluoro-2-methoxyphenyl)-8-[(2R)-2-hydroxy-2-(4-methyl-1-oxo-1,3-dihydro-2-benzofuran-5-yl)ethyl]octahydropyrazino[2,1-c][1,4]oxazin-8-ium chloride], the concentration for half-maximal inhibition (IC50) on hROMK (hKir1.1) (setting [1]) was 280 nM; on Kir1.1 (ROMK1) (setting [2]) it was 180 nM.

Turning to `Cc1c([C@@H]2CN3CCN(CCc4ccc5c(c4Br)COC5=O)C[C@H]3CO2)ccc2c1COC2=O` [Example 91], the IC50 was determined as 90 nM on hROMK (hKir1.1) (setting [1]) and 210 nM on Kir1.1 (ROMK1) (setting [2]).

Turning to `O=C1OCc2cc(CCN3CCN4C[C@H](c5ccc6c(c5)COC6=O)OC[C@@H]4C3)ccc21` [Example 63], the results for the IC50 on hROMK (hKir1.1) (setting [1]) and at Kir1.1 (ROMK1) (setting [2]) were 230 nM and 40 nM, respectively.

Take `Cc1c([C@H]2CN3CCN(CCc4ccc5c(c4C)COC5=O)C[C@H]3CO2)ccc(F)c1C#N` [Example 79]: the IC50 stood at 270 nM on hROMK (hKir1.1) (setting [1]) and 70 nM at Kir1.1 (ROMK1) (setting [2]).

As to `Cc1c([C@@H]2CN3CCN(C4CCc5cc(C#N)ccc5C4)C[C@H]3CO2)ccc2c1COC2=O` (stereo partly drawn) [Example 100, (3R,9aS)-8-(6-cyano-1,2,3,4-tetrahydronaphthalen-2-yl)-3-(4-methyl-1-oxo-1,3-dihydro-2-benzofuran-5-yl)octahydropyrazino[2,1-c][1,4]oxazin-5-ium trifluoroacetate], the IC50 on hROMK (hKir1.1) (setting [1]) is 30 nM; on Kir1.1 (ROMK1) (setting [2]), 210 nM.

On to `Cc1c([C@@H]2CN3CCN(CC(O)c4ccc5c(c4C4CC4)COC5=O)C[C@H]3CO2)ccc2c1COC2=O` (single isomer, unassigned) [Example 51], for which the IC50 at hROMK (hKir1.1) (setting [1]) worked out at 400 nM; on Kir1.1 (ROMK1) (setting [2]) it was 230 nM.

Consider `Cc1c([C@H]2CN3CCN(CC(O)c4ccc(-n5cnnn5)nc4)C[C@H]3CO2)ccc(F)c1C#N` (single isomer, unassigned) [Example 17], for which the figures for the IC50 on hROMK (hKir1.1) (setting [1]) and on Kir1.1 (ROMK1) (setting [2]) were 850 nM and 150 nM, respectively.

`Cc1c([C@@H]2CN3CCN(CCc4cc(F)c(C#N)c(F)c4)C[C@H]3CO2)ccc2c1COC2=O` [Example 98]: the results for the IC50 on hROMK (hKir1.1) (setting [1]) and at Kir1.1 (ROMK1) (setting [2]) were 170 nM and 90 nM, respectively.

With `Cc1c([C@@H]2CN3CCN(CCc4ccc5c(c4)C[C@H](C)OC5=O)C[C@H]3CO2)ccc2c1COC2=O` [Example 86], the IC50 on hROMK (hKir1.1) (setting [1]) and at Kir1.1 (ROMK1) (setting [2]) was 80 nM throughout.

On to `Cc1c([C@@H]2CN3CCN(CCc4ccc5c(c4)COC5=O)C[C@@H]3CN2)ccc(F)c1C#N` [Example 105], for which the 50% inhibitory concentration (IC50) at hROMK (hKir1.1) (setting [1]) is 290 nM; at Kir1.1 (ROMK1) (setting [2]), 150 nM.
